Experimental data as given in US20110159520A1, “HYBRID PROTEINS COMPRISING MEMBRANE RECEPTOR AND ION CHANNEL, AND THEIR USE AS BIOSENSORS” (UNIVERSITE JOSEPH FOURIER, priority 2008, published 2011).

Key:
M2−K 0-25 hybrid protein = biological target: T1, M2−K 0-25 hybrid protein (UniProt P08172+Q61743); type: cell-based, human M2, mouse Kir6.2
T1 construct: expressed in transfected cells; host or cells: Xenopus oocytes injected with cRNA (whole-cell TEVC, or outside-out patches excised from them)
T1 sequence (P08172+Q61743 with tags, fused parts or gaps): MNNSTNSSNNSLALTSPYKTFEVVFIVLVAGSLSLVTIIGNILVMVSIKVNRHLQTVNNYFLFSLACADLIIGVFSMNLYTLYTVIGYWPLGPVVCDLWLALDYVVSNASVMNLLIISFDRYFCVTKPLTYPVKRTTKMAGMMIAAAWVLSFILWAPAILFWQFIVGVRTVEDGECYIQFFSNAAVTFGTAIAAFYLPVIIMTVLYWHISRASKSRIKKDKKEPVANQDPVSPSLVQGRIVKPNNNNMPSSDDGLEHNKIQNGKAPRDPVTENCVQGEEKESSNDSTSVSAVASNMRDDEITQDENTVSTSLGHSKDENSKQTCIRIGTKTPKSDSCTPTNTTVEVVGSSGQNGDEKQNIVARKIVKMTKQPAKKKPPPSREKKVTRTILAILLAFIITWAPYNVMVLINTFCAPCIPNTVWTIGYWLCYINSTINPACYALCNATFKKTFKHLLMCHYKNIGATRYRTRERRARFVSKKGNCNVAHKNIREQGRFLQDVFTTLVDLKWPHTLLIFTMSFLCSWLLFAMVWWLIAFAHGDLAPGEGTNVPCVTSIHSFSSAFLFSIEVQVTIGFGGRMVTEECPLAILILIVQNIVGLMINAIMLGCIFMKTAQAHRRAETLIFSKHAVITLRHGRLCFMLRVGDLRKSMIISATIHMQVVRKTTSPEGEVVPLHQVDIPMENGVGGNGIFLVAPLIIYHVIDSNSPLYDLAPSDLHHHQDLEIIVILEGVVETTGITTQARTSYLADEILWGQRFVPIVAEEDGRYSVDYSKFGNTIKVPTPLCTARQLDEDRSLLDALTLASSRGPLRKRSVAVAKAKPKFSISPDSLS
Description: Xenopus oocytes defoliculated by collagenase treatment were microinjected with 50 nl of water containing one or a mixture of the following quantities of cRNA:
Oocytes were incubated in individual wells in Barth's solution (KCl 1 mM, MgSO4 0.82 mM, NaCl 88 mM, NaHCO3 2.4 mM, CaCl2 0.41 mM, Ca(NO3)2 0.3 mM, Hepes 16 mM, pH 7.4) supplemented with 100 U·ml^−1 penicillin, 100 μg ml^−1 streptomycin and […] gentamycin, for at least 48 hrs at 19° C. before characterization.
(§1) Whole-cell currents were measured using two-electrode voltage clamp (TEVC). Microelectrodes were filled with 3 M KCl and oocytes were bathed in a solution having (in mM): 91 KCl, 1.8 CaCl2, 1 MgCl2, 5 HEPES (pH 7.4) and 0.3 niflumic acid to block endogenous chloride current.
Unless otherwise specified, the concentration of M2 ligands was 5 μM.
(§2) The TEVC voltage protocol consisted of 500-ms steps to −50, 0 and +50 mV—during which current was measured—repeated every 5 s, the holding potential being 0 mV.
(§3) Average values are presented as mean±s.e.m. Non-linear least-square curve fitting to the data points obtained at various concentrations of activating or inhibiting ligands was done using a standard Hill equation: […]
Ba^2+ was used as a generic K^+ channel blocker. Percent changes in current were calculated with respect to the baseline extrapolated from measurements of Ba^2+-sensitive currents before and after agonist application. This method emphasizes reversibility and provides an underestimate of the true effects. For dose-response data, which were acquired by applying sequentially increasing concentrations of modulator to the same patch or oocyte, changes in current could only be measured with respect to the current before application, yielding somewhat larger values.

M2−K 0-20 hybrid protein = biological target: T2, M2−K 0-20 hybrid protein (UniProt P08172+Q61743); test: TEVC recordings from xenopus oocytes expressing M2−K 0-20; type: cell-based, human M2, mouse Kir6.2
T2 construct: expressed in transfected cells; host or cells: Xenopus oocytes injected with cRNA
T2 sequence (P08172+Q61743 with tags, fused parts or gaps): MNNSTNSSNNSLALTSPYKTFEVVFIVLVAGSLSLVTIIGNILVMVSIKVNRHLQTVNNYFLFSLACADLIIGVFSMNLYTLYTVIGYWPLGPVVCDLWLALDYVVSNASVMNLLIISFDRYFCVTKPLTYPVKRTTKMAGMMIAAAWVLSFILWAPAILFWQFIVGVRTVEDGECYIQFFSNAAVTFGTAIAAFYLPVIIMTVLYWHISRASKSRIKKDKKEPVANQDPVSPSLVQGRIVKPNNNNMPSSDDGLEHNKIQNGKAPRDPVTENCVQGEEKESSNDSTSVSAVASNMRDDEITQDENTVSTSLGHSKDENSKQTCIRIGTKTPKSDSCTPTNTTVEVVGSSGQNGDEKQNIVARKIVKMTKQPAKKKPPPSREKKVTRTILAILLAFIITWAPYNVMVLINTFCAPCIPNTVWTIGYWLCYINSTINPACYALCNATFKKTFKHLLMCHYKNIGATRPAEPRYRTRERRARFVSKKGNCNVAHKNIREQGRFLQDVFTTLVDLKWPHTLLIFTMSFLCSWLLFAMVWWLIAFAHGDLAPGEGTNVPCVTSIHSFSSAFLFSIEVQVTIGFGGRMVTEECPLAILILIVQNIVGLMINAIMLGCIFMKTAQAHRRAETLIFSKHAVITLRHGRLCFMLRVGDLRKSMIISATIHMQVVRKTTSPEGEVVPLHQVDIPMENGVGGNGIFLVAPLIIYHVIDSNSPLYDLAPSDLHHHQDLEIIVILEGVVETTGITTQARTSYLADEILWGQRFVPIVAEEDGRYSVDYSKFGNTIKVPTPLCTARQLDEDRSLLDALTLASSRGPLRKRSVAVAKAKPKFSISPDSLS
Description: as §1, §2, §3
(§4) Ba^2+ was used as a generic K^+ channel blocker. Percent changes in current were calculated with respect to the baseline extrapolated from measurements of Ba^2+-sensitive currents before and after agonist application.

D2-K 0-25 hybrid protein = D2-K 0-25 hybrid protein (UniProt P14416+Q61743); settings: sulpiride 5 μM during quinpirole 5 μM
Description: as §1, §2, §3, §4

[1] = test system: CCR2 chemokine receptor fused to Kir6.2 deleted in its N-terminus part; test: Electric flux of CCR2-Kir6.2 fusion protein; type: cell-based; settings: final concentration from about 0.3 μM to about 2 μM
Sequence of CCR2 chemokine receptor fused to Kir6.2 deleted in its N-terminus part (P41597 1-313 limits assumed): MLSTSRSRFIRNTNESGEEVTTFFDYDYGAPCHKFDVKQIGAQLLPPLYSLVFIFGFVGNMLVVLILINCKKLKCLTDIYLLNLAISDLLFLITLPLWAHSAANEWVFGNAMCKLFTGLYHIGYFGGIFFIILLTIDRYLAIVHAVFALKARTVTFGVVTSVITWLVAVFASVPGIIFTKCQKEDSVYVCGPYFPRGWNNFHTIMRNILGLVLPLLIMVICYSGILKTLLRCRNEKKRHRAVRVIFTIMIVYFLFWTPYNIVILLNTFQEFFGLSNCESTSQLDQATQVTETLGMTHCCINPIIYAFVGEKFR

Sequence of D2-K 0-25 hybrid protein (P14416+Q61743 fused): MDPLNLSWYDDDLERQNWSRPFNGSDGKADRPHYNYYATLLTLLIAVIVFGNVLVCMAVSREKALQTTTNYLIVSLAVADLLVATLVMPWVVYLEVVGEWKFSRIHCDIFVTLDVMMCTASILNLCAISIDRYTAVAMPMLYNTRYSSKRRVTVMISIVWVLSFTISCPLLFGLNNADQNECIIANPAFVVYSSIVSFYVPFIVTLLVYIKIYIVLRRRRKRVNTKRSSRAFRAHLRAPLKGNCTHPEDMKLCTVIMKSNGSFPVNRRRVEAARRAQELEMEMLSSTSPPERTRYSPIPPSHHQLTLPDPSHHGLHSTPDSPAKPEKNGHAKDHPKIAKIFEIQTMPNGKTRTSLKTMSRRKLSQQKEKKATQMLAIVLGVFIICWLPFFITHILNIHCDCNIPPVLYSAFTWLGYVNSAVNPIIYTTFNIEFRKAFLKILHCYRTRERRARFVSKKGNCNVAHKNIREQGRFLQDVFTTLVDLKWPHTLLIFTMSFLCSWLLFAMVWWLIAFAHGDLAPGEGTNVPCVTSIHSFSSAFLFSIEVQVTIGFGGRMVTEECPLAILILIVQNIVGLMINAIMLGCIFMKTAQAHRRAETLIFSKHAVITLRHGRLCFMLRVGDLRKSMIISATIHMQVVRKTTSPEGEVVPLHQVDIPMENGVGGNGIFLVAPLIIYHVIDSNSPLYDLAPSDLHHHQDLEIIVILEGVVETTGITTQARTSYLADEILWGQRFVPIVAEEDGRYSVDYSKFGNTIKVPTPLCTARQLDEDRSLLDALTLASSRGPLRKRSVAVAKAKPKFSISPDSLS

## C[N+](C)(C)CCOC(N)=O [CCh, carbachol]
M2−K 0-25 hybrid protein; increasing CCh concentrations, M2−K 0-25
  change of current induced by CCh (dose response): stimulated, in a dose-dependent manner
M2−K 0-20 hybrid protein; increasing CCh concentrations
  change of current induced by CCh (dose response): stimulated, in a dose-dependent manner

## NCCc1ccc(O)c(O)c1 [Dopamine]
M2−K 0-25 hybrid protein; Dopa 5 μM, TEVC
  sensitivity of M2−K 0-25 to Dopa: insensitive

## CN1[C@@H]2CC[C@H]1C[C@@H](OC(=O)C(CO)c1ccccc1)C2 (stereo partly shown) [atropine]
M2−K 0-25 hybrid protein
  effect of antagonist on ACh-induced current: inhibits the ACh-induced current
M2−K 0-20 hybrid protein; atropine 1 μM with ACh 5 μM
  effect of antagonist on ACh-induced current: inhibits the ACh-induced current

## CCN1CCCC1CNC(=O)c1cc(S(N)(=O)=O)ccc1OC (stereo not shown) [sulpiride]
D2-K 0-25 hybrid protein
  effect of antagonist on quinpirole-induced decrease in current: reversed

## CCL2: CCR2 agonist: CCL2 or MCP1
[1]
  generation of electric flux after stimulating the receptor: generation of an electric flux
